SMILES strings stand for the structures.

Results on 1 molecule are retold here after patent US9889135B2, “Companion diagnostic for CDK4 inhibitors” (Memorial Sloan-Kettering Cancer Center, priority 2013, dated 2018).

The subject of assay [1] is LS8107, LS7785-10, LS7785-1 and LS8313 cells. Nature of the assay: SA-β-gal and SAHF (HP1γ) senescence staining, non-responder lines. Conditions: LS7785-1, LS7785-10, LS8107 and LS8313; even at ten-fold increased concentration. The class given is cell-based, human. From the text: (§1) Mean percentage standard deviation). […] (A) Senescence-associated β-galactosidase and (B) HP1γ staining for senescence associated heterochromatic foci (SAHF) formation was quantitated for three or more independent experiments for each cell line. […] Representative phase contrast micrographs of cells stained for SA-β-gal or immunofluorescence staining for HP1γ in two of the cell lines before (ctrl) and after (PD) drug treatment are shown in the insets of FIGS. 2A and 2B, respectively. (C) BrdU incorporation. […] Error bars represent the standard deviation of the mean calculated from three independent trials. […] Cell number was quantitated by DAPI staining and β-galactosidase staining quantitated as a proportion of total cells. Senescence associated heterochromatic foci were quantitated after cells were fixed with 4% paraformaldehyde, permeabilized with 0.1% Triton, blocked with 2% FBS, and stained with antibodies against HP1γ (1:5000 dilution, 2MOD-1G6 Millipore). Senescent cells were identified by immunofluorescence after treatment of slides with anti-mouse secondary antibodies and quantitation of focal SAHF as a percent of total cells (Leica Upright Confocal SP5 confocal microscope). […] Cell area was measured by with Metamorph software to calculate relative area per cell.

The test system of assay [2] is seven RB-positive patient derived WD/DDLS cell lines. Nature of the assay: cell number by Coulter Counter. The class given is cell-based, human. Conditions: asynchronously growing cells, counted daily for 4 days.
Assay [3] concerns MDM2 in LS7785-1 and LS7785-10 cells. Nature of the assay: MDM2 turnover (cycloheximide chase), non-responder cells. Conditions: non-responder cells LS7785-1 and LS7785-10; 1 μM for 48 hrs, then cycloheximide. The class given is cell-based, human. As for the experimental part:
The level of MDM2 was measured by immunoblot (center). Tubulin was a loading control. […] This experiment was repeated at least three times on different biologic replicates. […] Tubulin is a loading control. Data compiled from at least three independent experiments is plotted (mean and standard deviation) and a representative immunoblot is shown. […] The graphs are compiled from the data obtained in three independent biologic replicates and representative autoradiographs are shown.

In assay [4] the test system is LS8817, LS141 and LS0082 cells. Nature of the assay: SA-β-gal and SAHF (HP1γ) senescence staining, responder lines. The class given is cell-based, human.
Text: as §1

For assay [5], the system named is MDM2 in glioma (U87MG, U251, SNB19, DBTRG-05MG) and breast cancer (MDA453, T47D, ZR-75-1, and MCF7) cells. As to the kind of experiment: MDM2 levels in glioma and breast cancer cell lines. The class given is cell-based. The note with it: eight glioma and breast cancer cell lines. An excerpt: FIG. 19A-C. Senescence associated with the downregulation of MDM2 is p53 and INK4 independent. […] This experiment was repeated three times with similar results in both LS8817 and LS141. […] The p53 mutational status of these cell lines (WT, wild type; R273H and L194F, missense mutations; if-DEL, in-frame deletion of 30 nucleotides at amino acid 368) were obtained from the p53 mutation database and the RIKEN bioresource databank and is consistent with the detection of p21 by immunoblot. (C) SNB19 cells, a p53 mutant and INK4A deficient cell, was transduced with the mutants described in panel A and their effect on senescence determined.
Antibodies against CDK4 (3F121), MDM2 (SMP-14), total RB (IFS), Cyclin A (H432), p16 (C20), and p53 (Bp53-12), were obtained from Santa Cruz Biotechnology, phospho-Rb 780 (#9307) from Cell Signalling, and ARF (3642) from Abeam. Treated cells were lysed with buffer composed of 50 mM Tris-HCl, pH7.4, 250 mM NaCl, 5 mM EDTA, 0.5% NP40, 2 mM PMSF, and supplemented with protease inhibitors. Eighty micrograms of protein were resolved by SDS-PAGE and transferred to PVDF membranes. Membranes were incubated overnight with antibodies (1:1000).

Assay [6] has as its system catalase in WD/DDLS cell lines. Nature of the assay: catalase expression by immunoblot. The class given is cell-based, human. Conditions: two senescing and two non-senescing cell lines. From the text: FIG. 22. Additional immunoblot analysis in responder and non-responder cells. […] Actin is a loading control. This experiment was repeated at least three times for each cell line.
In general terms: A western blot detects proteins with antibodies after separation by electrophoresis.

Assay [7] has as its system MDM2 in SNB19 glioma cells. Nature of the assay: MDM2 expression by immunoblot. The class given is cell-based. As for the experimental part: (§2) Antibodies against CDK4 (3F121), MDM2 (N-20 and SMP14), total RB (IF8), Cyclin A (H432), p16 (C20), p53 (DO-1 and Bp53-12), tubulin (C20) and FLAG (M2) were obtained from Santa Cruz Biotechnology, phospho-Rb 780 (#9307) from Cell Signalling, and ARF (3642) from Abeam, HAUSP (A300-033A) from Bethyl Laboratories. Treated cells were lysed with buffer composed of 50 mM Tris-HCl, pH7.4, 250 mM NaCl, 5 mM EDTA, 0.5% NP40, 2 mM PMSF, and supplemented with protease inhibitors. Eighty micrograms of protein were resolved by SDS-PAGE and transferred to PVDF membranes. Membranes were incubated overnight with antibodies (1:1000). […] Cycles were repeated every four weeks and patients are still on trial. Pre-treatment biopsies were collected within two weeks of the first dose and post-treatment biopsies collected after at last three weeks of treatment. Extracts were prepared in 50 mM Tris-HCl, pH7.4, 150 mM NaCl, 1 mM EDTA, 1% NP40, 0.25% sodium deoxycholate and supplemented with mini-protease inhibitor cocktail (Roche). Tumor response was assessed by reference radiologist by CT scan every six weeks for 36 weeks, and every 12 weeks thereafter. The clinical trial was approved by the Institutional Review Board of Memorial Sloan-Kettering Cancer Center and all patients provided written informed consent (NCT01209598).

For assay [8], the system named is MDM2 in T98G glioma cells. Nature of the assay: MDM2 expression by immunoblot. The class given is cell-based. On the procedure: as §2
Assay [9] has as its system MDM2 in DBTRG-05MG glioma cells. As to the kind of experiment: MDM2 expression by immunoblot. The class given is cell-based. As for the experimental part: as §2
Assay [10] concerns MDM2 in DKMG glioma cells. Nature of the assay: MDM2 expression by immunoblot. The class given is cell-based. As for the experimental part: as §2
Assay [11] concerns MDM2 in MCF7 breast cancer cells. As to the kind of experiment: MDM2 expression by immunoblot. The class given is cell-based. As for the experimental part:
as §2

Where [12] appears, read: ratio of MDM2 detected by Image J scanning in treated versus untreated cultures.

Regarding `CC(=O)c1c(C)c2cnc(Nc3ccc(N4CCNCC4)cn3)nc2n(C2CCCC2)c1=O` [PD0332991], the “number of SA-β-gal or SAHF positive cells” value is on record as “no increase” in assay [1] and “significant increase” in [4] (seven days after exposure). The growth arrest result in assay [2] is “growth arrest within a single cell cycle”. The MDM2 stability result in assay [3] is recorded as “largely unaffected”. Also, in assay [4] (seven days, concentrations as low as), the “concentration giving a significant increase in SA-β-gal or SAHF positive cells” value is at most 100 nM. Also, the MDM2 levels entry in [5] is on record as “decreased”; in assay [8] (cells that did not undergo senescence), “unaffected”. In [6], the catalase expression entry is given as “increased”. The “MDM2 expression levels reduced compared to the non-treated cells” value in assay [7], in assay [9], in assay [10] and in assay [11] was “greater than 34%” each time. Further, the “ΔMDM2 with PD” value in assay [7] (setting [12]) is listed as 0.08; in [8] (setting [12]), “Not detected”; in assay [9] (setting [12]) it was 0.49; in assay [10] (setting [12]) it was 0.66; in assay [11] (setting [12]) it was 0.08.
